Test results from US5527796A, “Thienothiazine derivatives and their use” (Chemisch Pharmazeutische Forschungsgesellschaft m.b.H., priority 1992, dated 1996).

How the values were obtained:
[1] = system: cyclooxygenase; experiment: formation of PGD2 by neutrophils as a measure for cyclooxygenase activity (A23187-stimulated, RIA); format: cell-based, Male Sprague Dawley rats; conditions: for IC50: rat neutrophils, A23187 2 μmol/l, 5 min at 37° C., RIA of PGD2
Experimental: (§1) The formation of PGD2 by neutrophils was used as a measure for cyclooxygenase activity and the formation of LTB4 was used as a measure for 5-lipoxygenase activity.
(§2) Male Sprague Dawley rats (250-300 g) were injected with lambda carrageenan 1 mg intraperitoneally (dissolved in 0.5 ml dest.water) per animal. After 16 hours the rats were killed by exposure to diethylether. 15 ml ice cold Hanks balanced salt solution were injected i.p., neutrophils harvested by aspiration (10 ml), centrifuged (5 min, 100 g, 4° C.), the supernatant decanted and cells resuspended in HBSS at 4° C. to 5×10^6 cells/mi. 400 μl cell suspension (2×10^6 cells), 0.5 μl drugs dissolved in DMSO and 49.5 μl HBSS were incubated for 5 min at 37° C. Then 50 μl A23187 (2 μmol/l final conc.) were added followed by 5 min incubation at 37° C. The reaction was stopped by centrifugation for 30 s at 10000 g and the supernatant transferred to precooled plastic tubes and kept in an ice bath for max. 1 hour before starting RIA. PGD2 and LTB4 in the samples were measured after appropriate dilution with HBSS using commercial RIA kits.
(§3) Using the above mentioned methods the new compounds were tested. The inhibition of cyclooxygenase and of 5-lipoxygenase was measured.

[2] = molecular target: T1, 5-lipoxygenase (Rattus norvegicus, UniProt P12527); experiment: formation of LTB4 by neutrophils as a measure for 5-lipoxygenase activity (A23187-stimulated, RIA); format: cell-based, Male Sprague Dawley rats; conditions: A23187 2 μmol/l, 5 min at 37° C.
T1 construct: neutrophils harvested by aspiration; endogenous in cells; host or cells: peritoneal neutrophils of male Sprague Dawley rats, harvested 16 h after intraperitoneal carrageenan
T1 sequence (P12527 1-673): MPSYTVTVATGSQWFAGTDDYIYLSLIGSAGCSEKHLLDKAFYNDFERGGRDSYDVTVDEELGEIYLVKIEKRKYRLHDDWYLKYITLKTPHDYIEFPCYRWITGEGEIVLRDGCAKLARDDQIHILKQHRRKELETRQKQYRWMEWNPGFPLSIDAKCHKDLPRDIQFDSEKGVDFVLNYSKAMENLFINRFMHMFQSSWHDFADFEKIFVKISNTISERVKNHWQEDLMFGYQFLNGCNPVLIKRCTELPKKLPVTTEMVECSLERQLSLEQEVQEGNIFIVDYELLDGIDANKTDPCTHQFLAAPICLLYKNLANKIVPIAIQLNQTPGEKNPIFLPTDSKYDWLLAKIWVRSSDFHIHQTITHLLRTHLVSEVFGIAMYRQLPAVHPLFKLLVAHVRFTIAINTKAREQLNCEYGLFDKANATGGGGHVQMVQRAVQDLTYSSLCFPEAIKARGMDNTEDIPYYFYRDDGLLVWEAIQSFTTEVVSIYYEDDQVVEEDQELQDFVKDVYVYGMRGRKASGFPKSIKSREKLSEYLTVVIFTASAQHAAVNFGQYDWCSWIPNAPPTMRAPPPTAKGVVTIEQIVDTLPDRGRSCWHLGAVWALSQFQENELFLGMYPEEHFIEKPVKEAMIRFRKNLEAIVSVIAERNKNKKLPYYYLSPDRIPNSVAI
Experimental: as §1, §2, §3

| IC50 [1] [nM] | IC50 [2] [nM] | SMILES | inhibition of cyclooxygenase (in words) ([1]; PGD2 formation) |
| --- | --- | --- | --- |
| 20 | > 10000 | CN1C(C(=O)Nc2ccccn2)=C(O)c2sc(Cl)cc2S1(=O)=O [Compound A, 6-chloro-4-hydroxy-2-methylo-N-(2-pyridyl)-2h-thieno[2,3-e]-1,2-thiazine-3-carboxamide-1,1-dioxide, reference compound] | inhibited only cyclooxygenase |
| 190 | 2700 | CN1C(C(=O)Nc2cccc(CCc3ccccc3)n2)=C(O)c2sc(Cl)cc2S1(=O)=O [Example 4, 6-Chloro-4-hydroxy-2-methyl-N-[6-(2-phenylethyl)-2-pyridyl]-2H-thieno[2,3-e]-1,2-thiazine-3-carboxamide-1,1-dioxide] | – |
| 410 | 3700 | CN1C(C(=O)Nc2cccc(C#Cc3ccccc3)n2)=C(O)c2sc(Cl)cc2S1(=O)=O [Example 7, 6-Chloro-4-hydroxy-2-methyl-N-[6-phenylethinyl]-2-pyridyl-2H-thieno[2,3-e]-1,2-thiazin-3-carbox-amide-1,1,-dioxide] | – |
| 510 | 4200 | CN1C(C(=O)Nc2cccc(CCCc3ccccc3)n2)=C(O)c2sc(Cl)cc2S1(=O)=O [Example 8, 6-Chloro-4-hydroxy-2-methyl-N-[6-(3-phenylpropyl)]-2-pyridyl-2H-thieno[2,3-e]-1,2-thiazin-3-carbox-amide-1,1,-dioxide] | – |
| 750 | 1900 | CN1C(C(=O)Nc2cccc(CCCCc3ccccc3)n2)=C(O)c2sc(Cl)cc2S1(=O)=O [Example 9, 6-Chloro-4-hydroxy-2-methyl-N-[6-(4-phenylbutyl)]-2-pyridyl-2H-thieno[2,3-e]-1,2-thiazin-3-carbox-amide-1,1,-dioxide] | – |
| 450 | 4800 | CN1C(C(=O)Nc2cccc(COc3ccc(F)cc3)n2)=C(O)c2sc(Cl)cc2S1(=O)=O [Example 10, 6-Chloro-4-hydroxy-2-methyl-N-[6-(4-fluorphenoxy-methyl)]-2-pyridyl-2H-thieno[2,3-e]-1,2-thiazin-3-carboxamide-1,1,-dioxide] | – |
| 120 | 7300 | CN1C(C(=O)Nc2cccc(COc3ccccc3)n2)=C(O)c2sc(Cl)cc2S1(=O)=O [Example 11] | – |
| 16 | 2000 | CN1C(C(=O)Nc2cccc(-c3cc4ccccc4o3)n2)=C(O)c2sc(Cl)cc2S1(=O)=O [Example 12, 6-Chloro-4-hydroxy-2-methyl-N-[6-(2-benzo(b)furyl)]-2-pyridyl-2H-thieno[2,3-e]-1,2-thiazin-3-carbox-amide-1,1,-diol] | – |
| 150 | 5100 | CN1C(C(=O)Nc2cccc(OCc3ccccc3)n2)=C(O)c2sc(Cl)cc2S1(=O)=O [Example 13, 6-Chloro-4-hydroxy-2-methyl-N-[6-phenylmethoxy]-2-pyridyl-2H-thieno[2,3-e]-1,2-thiazin-3-carbox-amide-1,1,-dioxide] | – |
| 180 | 4300 | CN1C(C(=O)Nc2cccc(/C=C/c3ccccc3)n2)=C(O)c2sc(Cl)cc2S1(=O)=O [Example 14, 6-Chloro-4-hydroxy-2-methyl-N-[6-((E)-2-phenylethenyl)]-2-pyridyl-2H-thieno[2,3-e]-1,2-thiazin-3-carbox-amide-1,1,-dioxide] | – |
| 660 | 2000 | CN1C(C(=O)Nc2cccc(OCc3ccc4ccccc4n3)n2)=C(O)c2sc(Cl)cc2S1(=O)=O [Example 17, 6-Chloro-4-hydroxy-2-methyl-N-[6-quinalinylmethoxy]-2-pyridyl-2H-thieno[2,3-e]-1,2-thiazin-3-carbox-amide-1,1,-dioxide] | – |
| 350 | 3200 | CN1C(C(=O)Nc2cccc(OCc3cc4ccccc4s3)n2)=C(O)c2sc(Cl)cc2S1(=O)=O [Example 20] | – |
